Assays:
[1] = target: T1, hDHODH (Homo sapiens, UniProt Q02127); test: hDHODH enzyme inhibition assay (DCIP/UQ0, dihydroorotate-initiated); type: biochemical; settings: for inhibition at 10 µM: compound at 10 µM, 10 nM purified hDHODH; for IC50: three independent tests, determined if inhibition at 10 μM was greater than 50%;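 on all read-outs here: recombinant hDHODH (Met30–Arg396) in HEPES pH 8.0 buffer with KCl and Triton X-100, reaction started by 500 µM dihydroorotate, inhibition from rate with inhibitor relative to uninhibited rate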
T1 construct: The plasmid pET-19b–hDHODH (Met30-Arg396) was transformed; inferred from the pET-19b vector and from purification on a chelating column with imidazole elution) (N); made in house; host or cells: E. coli BL21 (DE3)
T1 sequence (Q02127 29-395 limits assumed): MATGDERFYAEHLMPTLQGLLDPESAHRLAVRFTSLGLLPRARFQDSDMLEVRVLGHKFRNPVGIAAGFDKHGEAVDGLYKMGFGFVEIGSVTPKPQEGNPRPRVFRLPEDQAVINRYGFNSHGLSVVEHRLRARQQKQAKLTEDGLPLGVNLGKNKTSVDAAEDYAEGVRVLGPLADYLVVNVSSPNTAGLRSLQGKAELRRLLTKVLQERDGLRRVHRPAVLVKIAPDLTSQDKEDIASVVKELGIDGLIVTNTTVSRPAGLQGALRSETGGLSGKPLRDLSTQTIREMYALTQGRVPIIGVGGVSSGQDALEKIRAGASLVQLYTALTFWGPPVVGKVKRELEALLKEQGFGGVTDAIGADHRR
Method: The purified hDHODH was diluted into a final concentration of 10 nM with the assay buffer contained 50 mM HEPES pH 8.0, 150 mM KCl, 0.1% Triton X-100. […] The dihydroorotate was added to a final concentration of 500 μM to initiate the reaction. […] Inhibition rate was calculated from (1-Vi/V0) × 100. For the determination of the IC50 values, eight to nine different concentrations were applied. Each inhibitor concentration point was tested in triplicate. IC50 values were calculated using the sigmoidal fitting option of the program Origin 8.0.

melting point	inhibition at 10 µM [1]	IC50 [1]	hDHODH inhibitory activity in words [1]	SMILES
274.1 to 275 °C	47%	> 10 µM		COC(=O)/C(C#N)=C1\SCC(=O)N1c1ccc(C(=O)Nc2ccccc2C)cc1 [Compound 29, Methyl (Z)-2-cyano-2-(4-oxo-3-(4-(o-tolylcarbamoyl)phenyl)thiazolidin-2-ylidene)acetate]
179.2 to 179.9 °C	50.7%	4.35 µM		COC(=O)/C(C#N)=C1\SCC(=O)N1c1ccc(-c2cccc([N+](=O)[O-])c2)cc1F [Compound 17, Methyl (Z)-2-cyano-2-(3-(3-fluoro-3’-nitro-[1,1’-biphenyl]-4-yl)-4-oxothiazolidin-2-ylidene) acetate]
231.7 to 232.5 °C	71.3%	3.01 µM		COC(=O)/C(C#N)=C1\SCC(=O)N1c1ccc(C(=O)Nc2ccc(F)cc2)cc1 [Compound 30, Methyl (Z)-2-cyano-2-(3-(4-((4-fluorophenyl)carbamoyl)phenyl)-4-oxothiazolidin-2-ylidene)acetate]
261.8 to 262.5 °C	34.5%	> 10 µM		COC(=O)/C(C#N)=C1\SCC(=O)N1c1ccc(C(=O)Nc2ccccc2C(=O)O)cc1 [Compound 40, (Z)-2-(4-(2-(1-Cyano-2-methoxy-2-oxoethylidene)-4-oxothiazolidin-3-yl)benzamido)benzoic acid]
328.1 to 328.9 °C	30.3%	> 10 µM		COC(=O)/C(C#N)=C1\SCC(=O)N1c1ccc(C(=O)Nc2ccc(C(C)(C)C)c(C(=O)O)c2)cc1 [Compound 44, (Z)-2-(tert-butyl)-5-(4-(2-(1-cyano-2-methoxy-2-oxoethylidene)-4-oxothiazolidin-3-yl)benzamido)benzoic acid]
194.9 to 195.6 °C	69%	2.98 µM		COC(=O)/C(C#N)=C1\SCC(=O)N1c1ccc(C(=O)Nc2ccccc2)cc1 [Compound 28, Methyl (Z)-2-cyano-2-(4-oxo-3-(4-(phenylcarbamoyl)phenyl)thiazolidin-2-ylidene)acetate]
212.9 to 213.9 °C	18.1%	> 10 µM		COC(=O)/C(C#N)=C1\SCC(=O)N1c1ccc(Oc2ccc(C(C)(C)C)cc2)cc1 [Compound 22, Methyl (Z)-2-(3-(4-(4-(tert-butyl)phenoxy)phenyl)-4-oxothiazolidin-2-ylidene)-2-cyanoacetate]
264.2 to 265.1 °C	53.6%	8.56 µM		COC(=O)/C(C#N)=C1\SCC(=O)N1c1ccc(C(=O)Nc2ccc(F)c(C#N)c2)cc1 [Compound 31, Methyl (Z)-2-cyano-2-(3-(4-((3-cyano-4-fluorophenyl)carbamoyl)phenyl)-4-oxothiazolidin-2-ylidene)acetate]
181.2 to 182.1 °C	44.7%	> 10 µM		COC(=O)/C(C#N)=C1\SCC(=O)N1c1ccc(Oc2ccccc2OC)cc1 [Compound 20, Methyl (Z)-2-cyano-2-(3-(4-(2-methoxyphenoxy)phenyl)-4-oxothiazolidin-2-ylidene)acetate]
306.2 to 307.1 °C	42%	> 10 µM		COC(=O)/C(C#N)=C1\SCC(=O)N1c1ccc(C(=O)Nc2ccc(Br)cc2)cc1 [Compound 33, Methyl (Z)-2-(3-(4-((4-bromophenyl)carbamoyl)phenyl)-4-oxothiazolidin-2-ylidene)-2-cyanoacetate]
117.3 to 118.1 °C	39.9%	> 10 µM	inactive	COC(=O)/C(C#N)=C1\SCC(=O)N1c1ccc(C(=O)NCc2ccccc2)cc1 [Compound 39, Methyl (Z)-2-(3-(4-(benzylcarbamoyl)phenyl)-4-oxothiazolidin-2-ylidene)-2-cyanoacetate]
217.3 to 218.1 °C	36.8%	> 10 µM		COC(=O)/C(C#N)=C1\SCC(=O)N1c1ccc(C(=O)NCc2ccccc2C(=O)O)cc1 [Compound 42, (Z)-2-((4-(2-(1-cyano-2-methoxy-2-oxoethylidene)-4-oxothiazolidin-3-yl)benzamido)methyl)-benzoic acid]
177.1 to 177.3 °C	55.4%	6.86 µM		COC(=O)/C(C#N)=C1\SCC(=O)N1c1ccc(-c2ccc(OC)cc2)cc1F [Compound 15, Methyl (Z)-2-cyano-2-(3-(3-fluoro-4’-methoxy-[1,1’-biphenyl]-4-yl)-4-oxothiazolidin-2-ylidene)acetate]
233.2 to 234.1 °C	36.2%	> 10 µM		COC(=O)/C(C#N)=C1\SCC(=O)N1c1ccc(OCc2cccc(C(=O)O)c2)cc1 [Compound 26, (Z)-3-((4-(2-(1-Cyano-2-methoxy-2-oxoethylidene)-4-oxothiazolidin-3-yl)phenoxy)methyl)benzoic acid]
285 to 286 °C	38.2%	> 10 µM	inactive	COC(=O)/C(C#N)=C1\SCC(=O)N1c1ccc(C(=O)Nc2ccc3ccccc3c2)cc1 [Compound 38, Methyl (Z)-2-cyano-2-(3-(4-(naphthalen-2-ylcarbamoyl)phenyl)-4-oxothiazolidin-2-ylidene)acetate]
